Measurements from PubChem BioAssay AID328 (DTP/NCI, 2004).
Values joined by “and” are separate entries in the source; they are usually repeats but may differ in a detail not shown here. Identical values can stand only once. Inconclusive results and toxic doses are left out.

Tested on: BDF1 mice, P388 leukemia ip, median survival T/C
Experiment: NCI In Vivo Anticancer Drug Screen. Data for tumor model P388 Leukemia (intraperitoneal) in B6D2F1 (BDF1) mice
Conditions: endpoint: median survival time, higher = longer survival
Procedure, shortened: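 Transplantable tumour in mice; compound vs vehicle dosing; survival scored; ratio of treated to control reported.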

[1] = dose: 100.0 mg/kg/injection, schedule: Q01DX001 (ip), vehicle: saline with Tween-80
[2] = dose: 200.0 mg/kg/injection, schedule: Q01DX001 (ip), vehicle: saline with Tween-80
[3] = dose: 12.5 mg/kg/injection, schedule: Q01DX009 (ip), vehicle: water
[4] = dose: 25.0 mg/kg/injection, schedule: Q01DX009 (ip), vehicle: water
[5] = dose: 50.0 mg/kg/injection, schedule: Q01DX009 (ip), vehicle: water
[6] = dose: 100.0 mg/kg/injection, schedule: Q04DX003 (ip), vehicle: Klucel (hydroxypropylcellulose) (HPC)
[7] = dose: 200.0 mg/kg/injection, schedule: Q04DX003 (ip), vehicle: Klucel (hydroxypropylcellulose) (HPC)
[8] = dose: 25.0 mg/kg/injection, schedule: Q01DX009 (ip), vehicle: saline with Tween-80
[9] = dose: 100.0 mg/kg/injection, schedule: Q04DX003 (ip), vehicle: saline
[10] = dose: 100.0 mg/kg/injection, schedule: Q01DX009 (ip), vehicle: saline with Tween-80
[11] = dose: 200.0 mg/kg/injection, schedule: Q01DX009 (ip), vehicle: saline with Tween-80
[12] = dose: 100.0 mg/kg/injection, schedule: Q04DX003 (ip), vehicle: saline with Tween-80
[13] = dose: 200.0 mg/kg/injection, schedule: Q04DX003 (ip), vehicle: saline with Tween-80
[14] = dose: 400.0 mg/kg/injection, schedule: Q04DX003 (ip), vehicle: saline with Tween-80
[15] = dose: 50.0 mg/kg/injection, schedule: Q01DX009 (ip), vehicle: saline with Tween-80
[16] = dose: 50.0 mg/kg/injection, schedule: Q04DX003 (ip), vehicle: saline with Tween-80
[17] = dose: 25.0 mg/kg/injection, schedule: Q01DX009 (ip), vehicle: saline
[18] = dose: 50.0 mg/kg/injection, schedule: Q01DX009 (ip), vehicle: saline
[19] = dose: 6.25 mg/kg/injection, schedule: Q01DX009 (ip), vehicle: saline

For `c1cc(Sc2cccc3nncn23)n2cnnc2c1`, the T/C [1] was 103 % of control, the T/C [2] was 97 % of control and the T/C (dose: 400.0 mg/kg/injection, schedule: Q01DX001 (ip), vehicle: saline with Tween-80) was 103 % of control.

For `Cn1cc(/C=C/C(N)=O)c2nccnc21`, the T/C (dose: 1.56 mg/kg/injection, schedule: Q01DX009 (ip), vehicle: water) was 114 % of control, the T/C (dose: 3.12 mg/kg/injection, schedule: Q01DX009 (ip), vehicle: water) was 100 % of control and the T/C (dose: 3.12 mg/kg/injection, schedule: Q04DX003 (ip), vehicle: water) was 115 % of control. The T/C (dose: 6.25 mg/kg/injection, schedule: Q01DX009 (ip), vehicle: water) was 95 % of control, the T/C (dose: 6.25 mg/kg/injection, schedule: Q04DX003 (ip), vehicle: water) was 106 % of control and the T/C [3] was 96 % of control. For the same compound, the T/C (dose: 12.5 mg/kg/injection, schedule: Q04DX003 (ip), vehicle: water) was 98 % of control, the T/C [4] was 100 % of control and 102 % of control and the T/C (dose: 25.0 mg/kg/injection, schedule: Q04DX003 (ip), vehicle: water) was 98 % of control. For the same compound, the T/C [5] was 86 % of control and the T/C (dose: 50.0 mg/kg/injection, schedule: Q04DX003 (ip), vehicle: water) was 102 % of control.

With `CC(=O)NN(c1ccccc1)c1ccccc1` the T/C (dose: 50.0 mg/kg/injection, schedule: Q04DX003 (ip), vehicle: Klucel (hydroxypropylcellulose) (HPC)) was 112 % of control, the T/C [6] was 91 % of control and the T/C [7] was 108 % of control.

`CN=C(NC)c1ccc(NC(=O)c2ccc(C(=O)Nc3ccc(C(=NC)NC)cc3)cc2)cc1` was tested, and the T/C (dose: 6.25 mg/kg/injection, schedule: Q01DX009 (ip), vehicle: saline with Tween-80) was 104 % of control, the T/C (dose: 12.5 mg/kg/injection, schedule: Q01DX009 (ip), vehicle: saline with Tween-80) was 100 % of control and the T/C [8] was 86 % of control. The T/C [9] was 90 % of control and the T/C (dose: 200.0 mg/kg/injection, schedule: Q04DX003 (ip), vehicle: saline) was 90 % of control.

For `CN1CCN(c2nn3nnnc3c3ccccc23)CC1`, the T/C (dose: 20.0 mg/kg/injection, schedule: Q01DX009 (ip), vehicle: saline with Tween-80) was 89 % of control, the T/C (dose: 40.0 mg/kg/injection, schedule: Q01DX009 (ip), vehicle: saline with Tween-80) was 94 % of control and the T/C (dose: 80.0 mg/kg/injection, schedule: Q01DX009 (ip), vehicle: saline with Tween-80) was 93 % of control.

For `O=C(Nc1ncn[nH]1)C(=O)Nc1ncn[nH]1`, the T/C [10] was 102 % of control and the T/C [11] was 100 % of control.

With `CCOc1ccc(Br)cc1/C=N/NS(=O)(=O)c1ccc(C)cc1` the T/C [12] was 109 % of control, the T/C (dose: 176.0 mg/kg/injection, schedule: Q04DX003 (ip), vehicle: saline with Tween-80) was 120 % of control and the T/C [13] was 109 % of control. The T/C (dose: 264.0 mg/kg/injection, schedule: Q04DX003 (ip), vehicle: saline with Tween-80) was 120 % of control and the T/C [14] was 120 % of control.

In the case of `O=C(O)CNC(=O)C(Br)Cc1ccccc1` (stereo not given), the T/C [12] is reported as 90 % of control, the T/C [13] is reported as 100 % of control and the T/C [14] is reported as 100 % of control.

In the case of `O=[N+]([O-])c1ccc(N2[C@@H]3C4CCC([C@@H]32)C42OCCO2)cc1`, the T/C (dose: 50.0 mg/kg/injection, schedule: Q01DX001 (ip), vehicle: saline with Tween-80) is reported as 93 % of control, the T/C [1] is reported as 118 % of control and the T/C [2] is reported as 93 % of control.

With `CS(=O)(=O)OCC(OS(C)(=O)=O)C(COS(C)(=O)=O)OS(C)(=O)=O` (stereo not given) the T/C [15] was 100 % of control, the T/C [16] was 95 % of control and the T/C [10] was 102 % of control. The T/C [12] was 91 % of control, the T/C [11] was 93 % of control and the T/C [13] was 95 % of control. For the same compound, the T/C (dose: 400.0 mg/kg/injection, schedule: Q01DX009 (ip), vehicle: saline with Tween-80) was 88 % of control and the T/C [14] was 91 % of control.

`NCCC(O)C(=O)NC1CC(N)C(OC2OC(CO)C(O)C(O)C2N)C(OC2OC(CO)C(O)C2O)C1O` (stereo not given) was tested, and the T/C (dose: 12.5 mg/kg/injection, schedule: Q01DX009 (ip), vehicle: saline) was 109 % of control, the T/C [17] was 109 % of control and the T/C [18] was 100 % of control.

For `BrC1CCCCCC(Br)C12OCCO2` (stereo not given), the T/C [6] was 100 % of control, the T/C [7] was 95 % of control and the T/C (dose: 400.0 mg/kg/injection, schedule: Q04DX003 (ip), vehicle: Klucel (hydroxypropylcellulose) (HPC)) was 100 % of control.

In the case of `CCCCCCCCCCCCCCCCCC[N+]1([O-])CCCC1`, the T/C [3] is reported as 100 % of control, the T/C [4] is reported as 93 % of control and the T/C [5] is reported as 93 % of control.

`CC1(C)OCC(=NNC(N)=O)CO1` was tested, and the T/C [9] was 98 % of control.

With `CC(C(=O)O)C(=O)O.[NH2-].[NH2-].[Pt+2]` the T/C [19] was 93 % of control and the T/C [17] was 214 % of control.

With `CC(C#N)(Nc1ccccc1)c1ccccc1` (stereo not given) the T/C [12] was 95 % of control, the T/C [13] was 100 % of control and the T/C [14] was 100 % of control.

With `CC(=O)NC(CO)(CO)CO` the T/C (dose: 100.0 mg/kg/injection, schedule: Q01DX001 (ip), vehicle: saline) was 100 % of control and the T/C (dose: 200.0 mg/kg/injection, schedule: Q01DX001 (ip), vehicle: saline) was 95 % of control.

For `COc1ccc2[nH]c3c(c2c1)CSc1ccccc1-3`, the T/C (dose: 100.0 mg/kg/injection, schedule: Q01DX001 (ip), vehicle: Klucel (hydroxypropylcellulose) (HPC)) was 91 % of control, the T/C (dose: 200.0 mg/kg/injection, schedule: Q01DX001 (ip), vehicle: Klucel (hydroxypropylcellulose) (HPC)) was 108 % of control and the T/C (dose: 400.0 mg/kg/injection, schedule: Q01DX001 (ip), vehicle: Klucel (hydroxypropylcellulose) (HPC)) was 108 % of control.

In the case of `CC(=O)SCCNCCNC1CC2CCC1C2` (stereo not given), the T/C (dose: 5.75 mg/kg/injection, schedule: Q01DX009 (ip), vehicle: saline) is reported as 104 % of control and the T/C (dose: 11.5 mg/kg/injection, schedule: Q01DX009 (ip), vehicle: saline) is reported as 104 % of control.

With `CC1COB(c2ccccc2)OCC(C)N1CNC(=O)C1=C(O)C2(O)C(O)=C3C(=O)C4C(O)=CC=CC4C(C)(O)C3CC2C(N(C)C)C1=O` (stereo not given) the T/C [18] was 109 % of control, the T/C (dose: 100.0 mg/kg/injection, schedule: Q01DX009 (ip), vehicle: saline) was 98 % of control and the T/C (dose: 200.0 mg/kg/injection, schedule: Q01DX009 (ip), vehicle: saline) was 111 % of control.

`O=C(S)c1ccccc1Br` was tested, and the T/C (dose: 50.0 mg/kg/injection, schedule: Q01DX005 (ip), vehicle: saline with Tween-80) was 99 % of control, the T/C (dose: 100.0 mg/kg/injection, schedule: Q01DX005 (ip), vehicle: saline with Tween-80) was 92 % of control and the T/C (dose: 200.0 mg/kg/injection, schedule: Q01DX005 (ip), vehicle: saline with Tween-80) was 100 % of control.

With `CC1(C)CC(C)(OC(=O)c2ccccc2)N=N1` (stereo not given) the T/C (dose: 25.0 mg/kg/injection, schedule: Q01DX005 (ip), vehicle: other) was 98 % of control, the T/C (dose: 50.0 mg/kg/injection, schedule: Q01DX005 (ip), vehicle: other) was 98 % of control and the T/C (dose: 100.0 mg/kg/injection, schedule: Q01DX005 (ip), vehicle: other) was 99 % of control. The T/C (dose: 200.0 mg/kg/injection, schedule: Q01DX005 (ip), vehicle: other) was 99 % of control and the T/C (dose: 400.0 mg/kg/injection, schedule: Q01DX005 (ip), vehicle: other) was 119 % of control.

For `O=C(NC(=O)c1c(F)cccc1F)Nc1ccc2[nH]ccc2c1`, the T/C [8] was 100 % of control, the T/C [15] was 100 % of control and the T/C [10] was 93 % of control.

For `CN1CCCC1c1cccnc1` (stereo not given), the T/C (dose: 3.13 mg/kg/injection, schedule: Q01DX009 (ip), vehicle: saline) was 109 % of control and the T/C [19] was 109 % of control.

With `Cc1ccc(C2(C(=O)O)CC2)cc1` the T/C [12] was 100 % of control, the T/C [13] was 104 % of control and the T/C [14] was 108 % of control.

In the case of `CCCCCCCCCCC(N)P(=O)(O)O` (stereo not given), the T/C (dose: 12.5 mg/kg/injection, schedule: Q04DX003 (ip), vehicle: saline with Tween-80) is reported as 92 % of control, the T/C (dose: 25.0 mg/kg/injection, schedule: Q04DX003 (ip), vehicle: saline with Tween-80) is reported as 92 % of control and the T/C [16] is reported as 92 % of control.
